Test results published in patent US8349835B2, “Aromatic ring fused triazine derivatives and uses thereof” (Shenyang Pharmaceutical University, priority 2008, dated 2013).

How the values were obtained:
[1] = molecular target: VEGFR-2 (Homo sapiens, UniProt P35968); assay: VEGFR-2 inhibition rate test (kinase assay kit, colorimetric ELISA); conditions: concentration not given
[2] = tested on: Rat aortic ring; assay: Rat Aortic Ring Assay; format: cell-based; conditions: for Rat Aortic Ring Assay (10 ug/ml), result in words: observed on the sixth day; for inhibition at 10 µg/mL: Rattus norvegicus, 10 ug/ml, compared with blank control, sixth day
Description: Rat Aortic Ring Assay • 1) 6 week old SD […] (Sprague Dawley) were selected for the experiments. Cleaned abdominal skin with 75% ethanol to disinfect, and then anesthetized the mice with ether, • 2) Carefully removed the abdominal aortas and transferred the aortas to normal saline. Excessive vascular tissues were carefully removed with scissors. • 3) The aortas were rinsed with normal saline until no blood stain remained. • 4) Sectioned the aortas into one millimeter depth arterial slices with ophthalmological scissors. • 5) Add 50 μL pre-thawed Matrigel to each well of the pre-cooled 96 well cell culture plates, and embedded the ring-shaped mouse aortas in collagen gel. • 6) Incubated for 60 minutes at 37° C. to solidificate the gel. • 7) Added DMEM culture solution containing 10% FBS, along with different concentrations of the selected compounds into the wells and cultured in the incubator. Every compound was repeated in no less than 3 wells. • 8) Replaced with the fresh medium and changed the medicine once on the third day. • 9) Took out the pates on the sixth day, and observed the vascular growth with Microscope (OLYMPUS, DP70, Japan) and took photographs(×100). Randomly chose 3 arterial rings to photograph and calculated the area covered by micro-vascular with Image Pro Plus software. The inhibition rate is calculated as:
[formula] • Evaluation criteria: ⋆inhibition rate[…]; ⋆⋆inhibition rate 60-90%; ⋆⋆⋆inhibition rate>90%.

[3] = tested on: chorioallantoic membrane vessels; assay: Activity test by chick chorioallantoic membrane method; format: in vivo; conditions: 5 uL medicine on cellulose membrane, chick embryo, 2 days
Protocol: After the shell membrane became wet, tore it open with ophthalmological tweezers so to expose the chorioallantoic membrane. • 6) Added 5 uL of selected medicine to a 0.5×0.5 cm cellulose membrane sterilized by high pressure, then set the membrane on the part of the chorioallantoic membrane with fewer vessels • 7) Closed the window, and put the embryos back into the hatch box to hatch for 2 days. • 8) Opened the transparent tape, and then opened the mixed cellulose membrane lightly with a tweezers. Measured the avascular area and took photographs.

[4] = tested on: Microvascular Endothelial Cells (MVEC); assay: MTT growth inhibition of MVEC; format: cell-based; conditions: Endothelial cell, 96 h, 4 days culture with drug, read-out: IG50 on inhibiting growth of MVEC
Protocol: In Vitro Anti-Tumor Activity Test
Put cell suspension into centrifugal tubes with a pipette under sterile conditions, then the cell suspension was centrifuged for 3 minutes at 1300 rpm. Discarded the supernatant lightly and added fresh culture medium. Mixed the cells by pipetting, then transferred the cells into culture flasks, and put them into the CO2 incubator. Changed the culture medium once after 24 hours.
Human prostate cancer cells (DU145, PC-3) were cultured in a medium containing RPMI1640 basic medium supplemented with 10% heat-inactivated FBS, 100 IU/mL penicillin, 100 μg/mL streptomycin and 1 mmol/L L-glutamine. Human breast carcinoma cells (T47D, MDA-MB231) were cultured in a medium containing RPM11640 basic medium supplemented with 10% heat-inactivated FBS, 5 μg/mL insulin, 100 IU/mL penicillin, 100 μg/mL streptomycin and 1 mmol/L L-glutamine. Human breast carcinoma cells (MCF-7) were cultured in a medium containing DMEM basic medium supplemented with 10% heat-inactivated FBS, 5 μg/mL insulin, 100 IU/mL penicillin, 100 μg/mL streptomycin and […]. Murine Lewis lung cancer cells (LL/2), murine melanoma cells (B16FD) and Microvascular Endothelial Cells (MVEC) were cultured in a medium containing DMEM basic medium supplemented with 10% heat-inactivated FBS, 4.5 g/L glucose, 1.5 g/L NaHCO3, 100 IU/mL penicillin, 100 μg/mL streptomycin and 4 mmol/L L-glutamine. All these cell lines were incubated at 37° C. biochemical incubator with 5% CO2 saturated humidity.
After resuscitation, the cells were passed for 2-3 generations till they became stable, then they were used for the experiments. Each passage was based on the standard that all cells were spread over the bottoms of culture flasks.
Cells were digested off from the bottoms of culture flasks with trypsin (0.25%). The cell dissociation buffer was transferred into centrifuge tubes, added medium to stop the digestion, and centrifuged for 3 minutes at 1300 rpm. Discarded the supernatant lightly and added fresh culture medium (5 mL). Mixed the cells by pipetting, then added 10 μL of the cell suspension into the cell counting plate, and adjusted the cell concentration to 2×10^4 cells/mL. Added 100 μL of the cell suspension to all wells on the 96 well plates, except A1 well as the blank control. Put the plates into the biochemical incubator for 24 hours and to make sure the cells grew along the walls.
The drugs were dissolved in 80 mmol/L DMSO first, and then diluted the drugs with ethanol to 8 mmol/L. The solution was further diluted with the culture medium to different concentrations as 160 μmol/L, 120 μmol/L, 80 μmol/L, 40 μmol/L, 20 μmol/L and 10 μmol/L. Added 100 μL of the drug solution to each well on the 96 well plates. Therefore, the final concentrations of the drugs that were added to the cells were 80 μmol/L, 40 μmol/L, 20 μmol/L, 10 μmol/L and 5 μmol/L, and each concentration were repeated in three parallel wells. Put the culture plates into the biochemical incubator to culture continuously for 4 days.
Added 50 μL MTT liquids (2 mg/mL) into each well, put the culture plates into the biochemical incubator for 4 h, discarded MTT liquids (TCC), added 200 μL DMSO, then oscillated for 10 minutes on the magnetic oscillator to make sure that the survived cells and the reaction product of MTT were fully dissolved. Detected and recorded the absorbance (OD) values of each well at the wavelength of 570 nm using the microplate reader. The OD values of cells without tested drugs were used as control. The cell growth inhibition rates under each drug concentration were calculated by the following formula. […] Inhibition rate of growth(%)=(1−The absorbance(OD)of cells with tested drugs/The absorbance(OD)of the blank control group)×100%
The absorbance (OD) of cells with tested drugs: OD value is measured with the test drugs.
The absorbance (OD) of the blank control group: OD value is measured without the test drugs. […]

Chain of VEGFR-2 (P35968 20-1356): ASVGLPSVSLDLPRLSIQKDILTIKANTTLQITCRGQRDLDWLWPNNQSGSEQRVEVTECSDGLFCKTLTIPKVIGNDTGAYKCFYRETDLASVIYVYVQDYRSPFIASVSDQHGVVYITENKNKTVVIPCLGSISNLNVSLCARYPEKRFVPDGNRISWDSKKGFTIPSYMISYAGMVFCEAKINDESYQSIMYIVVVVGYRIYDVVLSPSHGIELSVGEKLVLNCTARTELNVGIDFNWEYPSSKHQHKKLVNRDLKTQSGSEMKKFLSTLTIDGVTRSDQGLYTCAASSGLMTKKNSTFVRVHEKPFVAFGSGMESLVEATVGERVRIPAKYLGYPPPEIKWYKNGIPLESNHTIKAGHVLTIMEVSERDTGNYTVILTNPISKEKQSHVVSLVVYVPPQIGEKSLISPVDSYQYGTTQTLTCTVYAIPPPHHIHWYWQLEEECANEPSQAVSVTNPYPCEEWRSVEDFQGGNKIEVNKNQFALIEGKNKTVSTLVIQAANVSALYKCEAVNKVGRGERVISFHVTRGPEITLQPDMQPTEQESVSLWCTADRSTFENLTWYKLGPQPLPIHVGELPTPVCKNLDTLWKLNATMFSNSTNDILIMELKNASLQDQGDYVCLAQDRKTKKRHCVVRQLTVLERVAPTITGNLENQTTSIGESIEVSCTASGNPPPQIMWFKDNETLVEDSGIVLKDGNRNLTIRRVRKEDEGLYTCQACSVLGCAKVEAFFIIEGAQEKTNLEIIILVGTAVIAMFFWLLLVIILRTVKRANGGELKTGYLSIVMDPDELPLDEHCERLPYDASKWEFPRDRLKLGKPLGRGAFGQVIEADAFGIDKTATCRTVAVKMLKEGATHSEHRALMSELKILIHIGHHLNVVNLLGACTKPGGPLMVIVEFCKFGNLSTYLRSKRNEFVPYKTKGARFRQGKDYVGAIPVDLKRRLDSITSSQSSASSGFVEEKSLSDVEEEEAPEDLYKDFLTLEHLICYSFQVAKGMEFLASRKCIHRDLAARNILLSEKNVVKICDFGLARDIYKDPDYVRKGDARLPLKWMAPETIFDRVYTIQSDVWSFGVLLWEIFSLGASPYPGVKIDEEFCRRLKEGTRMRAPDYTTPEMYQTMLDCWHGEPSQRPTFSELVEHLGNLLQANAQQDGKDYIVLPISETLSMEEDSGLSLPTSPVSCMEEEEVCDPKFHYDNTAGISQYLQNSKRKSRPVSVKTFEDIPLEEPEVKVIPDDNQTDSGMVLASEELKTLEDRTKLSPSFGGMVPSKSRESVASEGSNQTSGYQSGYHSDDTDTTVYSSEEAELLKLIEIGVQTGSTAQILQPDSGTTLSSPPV

SMILES | Kinase inhibition rate (VEGFR-2) [1] | Rat Aortic Ring Assay (10 ug/ml), result in words [2] | The inhibitory effect on the growth of chorioallantoic membrane vessels [3] | inhibition at 10 µg/mL [2] [%] | IC50 [4] [µM]
CCCCOc1cc2nnnc(Nc3cccc(OC(F)(F)F)c3)c2cc1OC [Example 19, 6-methoxy-7-n-butoxy-4-(3-trifluoromethoxyanilino)-benzo[d][1,2,3]triazine] | −56.68 | No significant inhibition compared with the blank control. | Vessels are broken in one of two samples, |  | 
CCCCOc1cc2nnnc(Nc3ccc(OC(F)(F)F)cc3)c2cc1OC [Example 20, 6-methoxy-7-n-butoxy-4-(4-trifluoromethoxyanilino)-benzo[d][1,2,3]triazine] |  | Cell proliferation and migration were not significantly affected, | One of the two samples exhibits significant inhibition, and the other |  | 
CCCCOc1cc2nnnc(Nc3cccc(Cl)c3)c2cc1OC [Example 21, 6-methoxy-7-n-butoxy-4-(3-chloroanilino)-benzo[d][1,2,3]triazine] | 2.40 | No significant inhibition | The vessels covered by paper become thinner, and another embryo is dead. |  | 
CCOc1cc2nnnc(Nc3cccc(C(F)(F)F)c3)c2cc1OC [Example 34, 6-methoxy-7-ethoxy-4-(3-trifluoromethylanilino)-benzo[d][1,2,3]triazine] |  |  | One of the two samples exhibits significant inhibition zone, and the other | > 80 | 
CCOc1cc2nnnc(Nc3cccc(Cl)c3)c2cc1OC [Example 38, 6-methoxy-7-ethoxy-4-(3-chloroanilino)-benzo[d][1,2,3]triazine] |  | No significant inhibition | One embryo is dead. |  | 
CCOc1cc2nnnc(Nc3ccc(F)c(Cl)c3)c2cc1OC [Example 39, 6-methoxy-7-ethoxy-4-(3-chloro-4-fluoroanilino)-benzo[d][1,2,3]triazine] | 46.67 | No significant inhibition | One embryo is dead, and the other exhibits no significant inhibition |  | 
CCOc1cc2nnnc(Nc3ccccc3F)c2cc1OC [Example 41, 6-methoxy-7-ethoxy-4-(2-fluoroanilino)-benzo[d][1,2,3]triazine] |  | No significant inhibition | One embryo is dead, and the other exhibits no significant inhibition |  | 
CCOc1cc2nnnc(Nc3cccc(Br)c3)c2cc1OC [Example 42, 6-methoxy-7-ethoxy-4-(3-bromoanilino)-benzo[d][1,2,3]triazine] |  |  | One of the two samples exhibits inhibition | ~40 | 
CCCCCOc1cc2nnnc(Nc3ccc(C(F)(F)F)cc3)c2cc1OC [Example 51, 6-methoxy-7-pentyloxy-4-(4-trifluoromethylanilino)-benzo[d][1,2,3]triazine] | −18.71 | No significant inhibition | The samples exhibit significant inhibition ring. |  | 
CCCCCOc1cc2nnnc(Nc3ccc(F)cc3)c2cc1OC [Example 59, 6-methoxy-7-pentyloxy-4-(4-fluoroanilino)-benzo[d][1,2,3]triazine] |  | No significant inhibition | The vessels become fewer, but not thinner. The medicine precipitates out. |  | 
Clc1ccc(Nc2nnnc3ncc(Cl)cc23)cc1 [Example 83, 6-chloro-4-(4-chloroanilino)pyrido[3,2][1,2,3]triazine] | 23.56 | No significant inhibition |  |  | 10.5

Second part, led by results:

Kinase inhibition rate (VEGFR-2) [1] | SMILES | Rat Aortic Ring Assay (10 ug/ml), result in words [2] | The inhibitory effect on the growth of chorioallantoic membrane vessels [3] | inhibition at 10 µg/mL [2] [%] | IC50 [4] [µM]
19.78 | Fc1ccccc1Nc1nnnc2ccccc12 [Example 3, 4-(2-fluoroanilino)-benzo[d][1,2,3]triazine] | No significant inhibition | Significant inhibition in two of three samples, |  | 
12.83 | Clc1cccc(Nc2nnnc3ccccc23)c1 [Example 4, 4-(3-chloroanilino)-benzo[d][1,2,3]triazine] |  | The vascular growth is abundant |  | 
−33.42 | FC(F)(F)Oc1ccc(Nc2nnnc3ccccc23)cc1 [Example 6, 4-(4-trifluoromethoxyanilino)-benzo[d][1,2,3]triazine] | No significant inhibition | One of the two samples exhibits significant fracture, |  | 
−17.64 | FC(F)(F)Oc1cccc(Nc2nnnc3ccccc23)c1 [Example 7, 4-(3-trifluoromethoxyanilino)-benzo[d][1,2,3]triazine] | No significant inhibition | Two samples exhibit significant inhibition ring |  | 
−9.35 | CCCCCOc1cc2nnnc(Nc3cccc(C(F)(F)F)c3)c2cc1OC [Example 50, 6-methoxy-7-pentyloxy-4-(3-trifluoromethylanilino)-benzo[d][1,2,3]triazine] | No significant inhibition compared with the blank control | One of the two samples exhibits inhibition ring. |  | 
3.58 | COc1cc2c(Nc3ccccc3)nnnc2cc1OCCCCl [Example 61, 6-methoxy-7-chloropropoxy-4-anilino-benzo[d][1,2,3]triazine] | No significant inhibition | One sample exhibits inhibition ring at the zone covered by paper. |  | 
2.39 | Clc1cccc(Nc2nnnc3ccc(Cl)nc23)c1 [Example 88, 6-chloro-4-(3-chloroanilino)pyrido[3,2-d][1,2,3]triazine] | Almost complete inhibition (10 μg/mL), vascular ring was dead |  |  | 12.7
